According to ChEMBL document CHEMBL1121950, “Species- or isozyme-specific enzyme inhibitors. 9. Selective effects in inhibitions of rat pyruvate kinase isozymes by adenosine 5'-diphosphate derivatives” (J Med Chem, 1982):
Where “and” joins values, the source holds several entries; their conditions need not be identical. Equal entries are not always repeated.

How the values were obtained:
Pyruvate kinase PKLR [1] = biological target: T1, Pyruvate kinase PKLR (Rattus norvegicus, UniProt P12928); test: Inhibitory constant for inhibition of pyruvate kinase obtained from rat liver (PK-L) was determined using ADP as competitive inhibitor
T1 sequence (P12928 whole entry): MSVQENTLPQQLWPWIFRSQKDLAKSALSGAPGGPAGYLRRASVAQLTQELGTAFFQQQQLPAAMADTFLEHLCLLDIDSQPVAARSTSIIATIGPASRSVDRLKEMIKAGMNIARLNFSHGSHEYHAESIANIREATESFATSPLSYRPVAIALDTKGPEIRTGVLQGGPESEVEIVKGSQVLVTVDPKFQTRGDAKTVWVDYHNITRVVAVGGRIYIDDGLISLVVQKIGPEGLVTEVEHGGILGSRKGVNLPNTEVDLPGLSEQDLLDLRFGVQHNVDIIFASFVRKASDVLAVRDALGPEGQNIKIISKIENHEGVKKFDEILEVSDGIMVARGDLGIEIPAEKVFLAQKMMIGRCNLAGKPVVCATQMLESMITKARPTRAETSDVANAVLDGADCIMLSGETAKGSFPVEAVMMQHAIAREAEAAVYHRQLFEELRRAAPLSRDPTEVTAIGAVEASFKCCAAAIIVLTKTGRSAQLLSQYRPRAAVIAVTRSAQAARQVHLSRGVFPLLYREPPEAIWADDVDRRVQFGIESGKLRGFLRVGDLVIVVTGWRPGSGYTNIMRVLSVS

Pyruvate kinase PKM [2] = biological target: T2, Pyruvate kinase PKM (Rattus norvegicus, UniProt P11980); test: Inhibition of rat muscle pyruvate kinase (PK-M)
T2 sequence (P11980 whole entry): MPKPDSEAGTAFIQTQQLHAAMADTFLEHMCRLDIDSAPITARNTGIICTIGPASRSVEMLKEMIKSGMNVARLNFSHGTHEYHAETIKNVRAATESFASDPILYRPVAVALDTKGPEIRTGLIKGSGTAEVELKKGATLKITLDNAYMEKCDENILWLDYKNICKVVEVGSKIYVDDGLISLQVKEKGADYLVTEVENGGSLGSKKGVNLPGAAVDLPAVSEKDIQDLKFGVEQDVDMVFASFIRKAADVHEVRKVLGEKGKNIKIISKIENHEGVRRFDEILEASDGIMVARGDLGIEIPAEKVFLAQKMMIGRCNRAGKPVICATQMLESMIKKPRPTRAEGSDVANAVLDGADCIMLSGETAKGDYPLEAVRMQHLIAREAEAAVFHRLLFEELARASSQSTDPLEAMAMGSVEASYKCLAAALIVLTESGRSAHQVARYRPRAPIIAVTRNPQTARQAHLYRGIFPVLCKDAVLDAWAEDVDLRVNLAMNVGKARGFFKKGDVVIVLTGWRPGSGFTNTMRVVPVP

Pyruvate kinase PKLR [3] = biological target: T1, Pyruvate kinase PKLR; test: Inhibition of rat liver pyruvate kinase (PK-L) at 7.2 mM
Pyruvate kinase PKLR [4] = biological target: T1, Pyruvate kinase PKLR; test: Inhibition of rat liver pyruvate kinase (PK-L) at 3.6 mM
Pyruvate kinase PKLR [5] = biological target: T1, Pyruvate kinase PKLR; test: Inhibition of rat kidney pyruvate kinase (PK-L)
Pyruvate kinase PKLR [6] = biological target: T1, Pyruvate kinase PKLR; test: Inhibition of rat liver pyruvate kinase (PK-L); (relative inhibitory potency)
Pyruvate kinase PKM [7] = biological target: T2, Pyruvate kinase PKM; test: Inhibition of rat muscle pyruvate kinase (PK-M) at 10 mM
Pyruvate kinase PKLR [8] = biological target: T1, Pyruvate kinase PKLR; test: Inhibition of rat liver pyruvate kinase (PK-L) at 10.7 mM
Pyruvate kinase PKM [9] = biological target: T2, Pyruvate kinase PKM; test: Inhibition of rat muscle pyruvate kinase (PK-M) at 6.7 mM

Ki (Pyruvate kinase PKLR [1]) | Ki (Pyruvate kinase PKM [2]) | Compound | other results
32 mM | 9.3 mM | CO[C@H]1[C@@H](O)[C@H](n2cnc3c(N)ncnc32)O[C@@H]1COP(=O)(O)OP(=O)(O)O | –
– | 1.6 mM | CC1O[C@@H]2[C@H](O1)[C@@H](COP(=O)(O)OP(=O)(O)O)O[C@H]2n1cnc2c(N)ncnc21 (some centres not stated) | Ki (Pyruvate kinase PKLR [3]): 2.2 mM; Ki (Pyruvate kinase PKLR [4]): 4.6 mM
– | 0.9 mM | CCCNc1nc2c(N)ncnc2n1C1O[C@H](COP(=O)(O)OP(=O)(O)O)[C@@H](O)[C@H]1O (some centres not stated) | Ki (Pyruvate kinase PKLR [5]): 1.6 mM; Ki (Pyruvate kinase PKLR [6]): 3.8 mM
7.5 mM | 4.3 mM | CSc1nc2c(N)ncnc2n1C1O[C@H](COP(=O)(O)OP(=O)(O)O)[C@@H](O)[C@H]1O (some centres not stated) | –
– | – | C[C@@H](OP(=O)(O)OP(=O)(O)O)[C@H]1OC(n2cnc3c(N)ncnc32)[C@H](O)[C@@H]1O (some centres not stated) | Ki (Pyruvate kinase PKM [7]): 4.5 mM; Ki (Pyruvate kinase PKLR [8]): 5.4 mM; Ki (Pyruvate kinase PKM [9]): 7 mM
2.2 mM and 3.9 mM | 0.5 mM and 0.87 mM | CCNc1nc2c(N)ncnc2n1C1O[C@H](COP(=O)(O)OP(=O)(O)O)[C@@H](O)[C@H]1O (some centres not stated) | –
8.4 mM | 3.7 mM | CCSc1nc2c(N)ncnc2n1C1O[C@H](COP(=O)(O)OP(=O)(O)O)[C@@H](O)[C@H]1O (some centres not stated) | –
